Data published in ChEMBL document CHEMBL1151447, “Complex class 1 integrons with diverse variable regions, including aac(6')-Ib-cr, and a novel allele, qnrB10, associated with ISCR1 in clinical enterobacterial isolates from Argentina” (2007).

What was measured:
Assay type in all cases: functional
Escherichia coli [1] = assay: Antimicrobial activity against Escherichia coli DH10B in presence of IPTG; conditions: K-12 substr. DH10B
Escherichia coli [2] = assay: Antimicrobial activity against Escherichia coli DH10B expressing pCRQB10 in presence of IPTG; conditions: K-12 substr. DH10B
Escherichia coli [3] = assay: Antimicrobial activity against Escherichia coli DH10B expressing pCR2.1 in presence of IPTG; conditions: K-12 substr. DH10B
Escherichia coli [4] = assay: Antimicrobial activity against multidrug-resistant Escherichia coli M7943-TC2 bearing qnrB10 gene with aac(6)-Ib-cr-blaOXA-30 catB3-arr-3 integron in presence of IPTG
Enterobacter cloacae = assay: Antimicrobial activity against multidrug-resistant Enterobacter cloacae E705 bearing qnrB10 gene with aac(6)-IId-aadA1a integron in presence of IPTG
Klebsiella pneumoniae = assay: Antimicrobial activity against multidrug-resistant Klebsiella pneumoniae M7943 bearing qnrB10 gene with aac(6)-Ib-cr-blaOXA-30 catB3-arr-3 integron in presence of IPTG
Escherichia coli [5] = assay: Antimicrobial activity against Escherichia coli J53-AzR in presence of IPTG

NC[C@H]1O[C@H](O[C@H]2[C@H](O)[C@@H](O[C@H]3O[C@H](CO)[C@@H](O)[C@H](N)[C@H]3O)[C@H](N)C[C@@H]2N)[C@H](N)C[C@@H]1O [TOBRAMYCIN]
MIC (Escherichia coli [1]): 0.25 µg/mL
MIC (Escherichia coli [2]): 0.25 µg/mL
MIC (Escherichia coli [3]): 0.25 µg/mL
MIC (Escherichia coli [4]): 16 µg/mL
MIC (Enterobacter cloacae): 32 µg/mL
MIC (Klebsiella pneumoniae): 16 µg/mL
MIC (Escherichia coli [5]): 0.25 µg/mL

COc1c(N2CCNC(C)C2)c(F)cc2c(=O)c(C(=O)O)cn(C3CC3)c12 (stereo unspecified) [GATIFLOXACIN]
MIC (Escherichia coli [1]): 0.004 µg/mL
MIC (Escherichia coli [2]): 0.06 µg/mL
MIC (Escherichia coli [3]): 0.004 µg/mL
MIC (Escherichia coli [4]): 0.5 µg/mL
MIC (Enterobacter cloacae): 32 µg/mL
MIC (Klebsiella pneumoniae): 4 µg/mL
MIC (Escherichia coli [5]): 0.03 µg/mL

NCC[C@H](O)C(=O)N[C@@H]1C[C@H](N)[C@@H](O[C@H]2O[C@H](CN)[C@@H](O)[C@H](O)[C@H]2O)[C@H](O)[C@H]1O[C@H]1O[C@H](CO)[C@@H](O)[C@H](N)[C@H]1O [AMIKACIN]
MIC (Escherichia coli [1]): 1 µg/mL
MIC (Escherichia coli [2]): 2 µg/mL
MIC (Escherichia coli [3]): 2 µg/mL
MIC (Escherichia coli [4]): 4 µg/mL
MIC (Enterobacter cloacae): 8 µg/mL
MIC (Klebsiella pneumoniae): 16 µg/mL
MIC (Escherichia coli [5]): 0.5 µg/mL

COc1c(N2C[C@@H]3CCCN[C@@H]3C2)c(F)cc2c(=O)c(C(=O)O)cn(C3CC3)c12 [MOXIFLOXACIN]
MIC (Escherichia coli [1]): 0.004 µg/mL
MIC (Escherichia coli [2]): 0.125 µg/mL
MIC (Escherichia coli [3]): 0.004 µg/mL
MIC (Escherichia coli [4]): 1 µg/mL
MIC (Klebsiella pneumoniae): 8 µg/mL

C[C@H]1COc2c(N3CCN(C)CC3)c(F)cc3c(=O)c(C(=O)O)cn1c23.C[C@H]1COc2c(N3CCN(C)CC3)c(F)cc3c(=O)c(C(=O)O)cn1c23.O [LEVOFLOXACIN]
MIC (Escherichia coli [1]): 0.004 µg/mL
MIC (Escherichia coli [3]): 0.004 µg/mL
MIC (Enterobacter cloacae): ≥ 64 µg/mL
MIC (Klebsiella pneumoniae): 4 µg/mL

CC1COc2c(N3CCN(C)CC3)c(F)cc3c(=O)c(C(=O)O)cn1c23 (stereo unspecified) [OFLOXACIN]
MIC (Escherichia coli [1]): 0.004 µg/mL
MIC (Escherichia coli [3]): 0.004 µg/mL
MIC (Enterobacter cloacae): ≥ 64 µg/mL
MIC (Klebsiella pneumoniae): 8 µg/mL

CCn1cc(C(=O)O)c(=O)c2ccc(C)nc21 [NALIDIXIC ACID]
MIC (Escherichia coli [1]): 2 µg/mL
MIC (Escherichia coli [2]): 8 µg/mL
MIC (Escherichia coli [3]): 2 µg/mL
MIC (Escherichia coli [4]): 16 µg/mL
MIC (Enterobacter cloacae): ≥ 256 µg/mL
MIC (Klebsiella pneumoniae): 128 µg/mL
MIC (Escherichia coli [5]): 4 µg/mL

CCn1cc(C(=O)O)c(=O)c2cc(F)c(N3CCNCC3)cc21 [NORFLOXACIN]
MIC (Escherichia coli [1]): 0.008 µg/mL
MIC (Escherichia coli [2]): 0.125 µg/mL
MIC (Escherichia coli [3]): 0.008 µg/mL
MIC (Escherichia coli [4]): 2 µg/mL
MIC (Enterobacter cloacae): ≥ 64 µg/mL
MIC (Klebsiella pneumoniae): 32 µg/mL
MIC (Escherichia coli [5]): 0.03 µg/mL

O=C(O)c1cn(C2CC2)c2cc(N3CCNCC3)c(F)cc2c1=O [CIPROFLOXACIN]
MIC (Klebsiella pneumoniae): 32 µg/mL

NC[C@H]1O[C@H](O[C@H]2[C@H](O)[C@@H](O[C@H]3O[C@H](CO)[C@@H](O)[C@H](N)[C@H]3O)[C@H](N)C[C@@H]2N)[C@H](O)[C@@H](O)[C@@H]1O [KANAMYCIN]
MIC (Escherichia coli [1]): 1 µg/mL
MIC (Escherichia coli [2]): ≥ 256 µg/mL
MIC (Escherichia coli [3]): ≥ 256 µg/mL
MIC (Escherichia coli [4]): 64 µg/mL
MIC (Enterobacter cloacae): ≥ 256 µg/mL
MIC (Klebsiella pneumoniae): 128 µg/mL
MIC (Escherichia coli [5]): 2 µg/mL
